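Five compound concentrations were applied to cells in 96-well plates for 48 hours; endpoints were derived by simple linear interpolation of the resulting dose-response curve. GI50 marks 50% less growth. TGI is the concentration that stops growth completely.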
Key:
Assay in all cases: DTP human tumour cell line panel, 48 h
786-0 renal = system: 786-0 renal
A498 renal = system: A498 renal
A549 NSCLC = system: A549 NSCLC
ACHN renal = system: ACHN renal
BT-549 breast = system: BT-549 breast
CAKI-1 renal = system: CAKI-1 renal
CCRF-CEM leukemia = system: CCRF-CEM leukemia
COLO 205 colon = system: COLO 205 colon
DU-145 prostate = system: DU-145 prostate
EKVX NSCLC = system: EKVX NSCLC
HCC-2998 colon = system: HCC-2998 colon
HCT-116 colon = system: HCT-116 colon
HCT-15 colon = system: HCT-15 colon
HL-60(TB) leukemia = system: HL-60(TB) leukemia
HOP-62 NSCLC = system: HOP-62 NSCLC
HOP-92 NSCLC = system: HOP-92 NSCLC
HS 578T breast = system: HS 578T breast
HT29 colon = system: HT29 colon
IGROV1 ovarian = system: IGROV1 ovarian
K-562 leukemia = system: K-562 leukemia
KM12 colon = system: KM12 colon
LOX IMVI melanoma = system: LOX IMVI melanoma
M14 melanoma = system: M14 melanoma
MALME-3M melanoma = system: MALME-3M melanoma
MCF7 breast = system: MCF7 breast
MDA-MB-231 breast = system: MDA-MB-231 breast
MOLT-4 leukemia = system: MOLT-4 leukemia
NCI-H226 lung = system: NCI-H226 lung
NCI-H23 lung = system: NCI-H23 lung
NCI-H460 lung = system: NCI-H460 lung
NCI-H522 lung = system: NCI-H522 lung
NCI/ADR-RES ovarian = system: NCI/ADR-RES ovarian
OVCAR-3 ovarian = system: OVCAR-3 ovarian
OVCAR-4 ovarian = system: OVCAR-4 ovarian
OVCAR-5 ovarian = system: OVCAR-5 ovarian
OVCAR-8 ovarian = system: OVCAR-8 ovarian
PC-3 prostate = system: PC-3 prostate
RPMI-8226 leukemia = system: RPMI-8226 leukemia
RXF 393 renal = system: RXF 393 renal
SF-268 CNS = system: SF-268 CNS
SF-295 CNS = system: SF-295 CNS
SF-539 CNS = system: SF-539 CNS
SK-MEL-2 melanoma = system: SK-MEL-2 melanoma
SK-MEL-28 melanoma = system: SK-MEL-28 melanoma
SK-MEL-5 melanoma = system: SK-MEL-5 melanoma
SK-OV-3 ovarian = system: SK-OV-3 ovarian
SN12C renal = system: SN12C renal
SNB-19 CNS = system: SNB-19 CNS
SNB-75 CNS = system: SNB-75 CNS
SR leukemia = system: SR leukemia
SW-620 colon = system: SW-620 colon
T-47D breast = system: T-47D breast
TK-10 renal = system: TK-10 renal
U251 CNS = system: U251 CNS
UACC-257 melanoma = system: UACC-257 melanoma
UACC-62 melanoma = system: UACC-62 melanoma
UO-31 renal = system: UO-31 renal

O=C(N/N=C/c1ccc[nH]1)c1[nH]c2ccc(Br)cc2c1-c1ccccc1
GI50 (786-0 renal): 669 nM
TGI (786-0 renal): 7370 nM
GI50 (A498 renal): 6360 nM
TGI (A498 renal): 21900 nM
GI50 (A549 NSCLC): 345 nM
TGI (A549 NSCLC): 6880 nM
GI50 (ACHN renal): 516 nM
TGI (ACHN renal): 5880 nM
GI50 (BT-549 breast): 416 nM
TGI (BT-549 breast): 2420 nM
GI50 (CAKI-1 renal): 362 nM
TGI (CAKI-1 renal): 9860 nM
GI50 (CCRF-CEM leukemia): 385 nM
TGI (CCRF-CEM leukemia): 11800 nM
GI50 (COLO 205 colon): 298 nM
TGI (COLO 205 colon): 1320 nM
GI50 (DU-145 prostate): 489 nM
TGI (DU-145 prostate): 12400 nM
GI50 (EKVX NSCLC): 881 nM
TGI (EKVX NSCLC): 9160 nM
GI50 (HCC-2998 colon): 408 nM
TGI (HCC-2998 colon): 4810 nM
GI50 (HCT-116 colon): 318 nM
TGI (HCT-116 colon): 11000 nM
GI50 (HCT-15 colon): 297 nM
TGI (HCT-15 colon): 10900 nM
GI50 (HL-60(TB) leukemia): 235 nM
TGI (HL-60(TB) leukemia): 619 nM
GI50 (HOP-62 NSCLC): 526 nM
TGI (HOP-62 NSCLC): 8930 nM
GI50 (HOP-92 NSCLC): 1770 nM
TGI (HOP-92 NSCLC): 9770 nM
GI50 (HS 578T breast): 380 nM
TGI (HS 578T breast): 19700 nM
GI50 (HT29 colon): 324 nM
TGI (HT29 colon): 4310 nM
GI50 (IGROV1 ovarian): 460 nM
TGI (IGROV1 ovarian): 4100 nM
GI50 (K-562 leukemia): 253 nM
TGI (K-562 leukemia): 29800 nM
GI50 (KM12 colon): 477 nM
TGI (KM12 colon): 6080 nM
GI50 (LOX IMVI melanoma): 310 nM
TGI (LOX IMVI melanoma): 4970 nM
GI50 (M14 melanoma): 322 nM
TGI (M14 melanoma): 10700 nM
GI50 (MALME-3M melanoma): 410 nM
TGI (MALME-3M melanoma): 11500 nM
GI50 (MCF7 breast): 178 nM
TGI (MCF7 breast): 2410 nM
GI50 (MDA-MB-231 breast): 572 nM
TGI (MDA-MB-231 breast): 6090 nM
GI50 (MOLT-4 leukemia): 437 nM
TGI (MOLT-4 leukemia): 13400 nM
GI50 (NCI-H226 lung): 398 nM
TGI (NCI-H226 lung): 2780 nM
GI50 (NCI-H23 lung): 456 nM
TGI (NCI-H23 lung): 11300 nM
GI50 (NCI-H460 lung): 338 nM
TGI (NCI-H460 lung): 1230 nM
GI50 (NCI-H522 lung): 92.7 nM
TGI (NCI-H522 lung): 515 nM
GI50 (NCI/ADR-RES ovarian): 316 nM
TGI (NCI/ADR-RES ovarian): 2190 nM
GI50 (OVCAR-3 ovarian): 477 nM
TGI (OVCAR-3 ovarian): 12400 nM
GI50 (OVCAR-4 ovarian): 954 nM
TGI (OVCAR-4 ovarian): 12100 nM
GI50 (OVCAR-5 ovarian): 489 nM
TGI (OVCAR-5 ovarian): 10700 nM
GI50 (OVCAR-8 ovarian): 361 nM
TGI (OVCAR-8 ovarian): 3420 nM
GI50 (PC-3 prostate): 441 nM
TGI (PC-3 prostate): 8150 nM
GI50 (RPMI-8226 leukemia): 400 nM
TGI (RPMI-8226 leukemia): 10700 nM
GI50 (RXF 393 renal): 339 nM
TGI (RXF 393 renal): 10300 nM
GI50 (SF-268 CNS): 1570 nM
TGI (SF-268 CNS): 9840 nM
GI50 (SF-295 CNS): 243 nM
TGI (SF-295 CNS): 1020 nM
GI50 (SF-539 CNS): 219 nM
TGI (SF-539 CNS): 590 nM
GI50 (SK-MEL-2 melanoma): 379 nM
TGI (SK-MEL-2 melanoma): 13900 nM
GI50 (SK-MEL-28 melanoma): 653 nM
TGI (SK-MEL-28 melanoma): 16100 nM
GI50 (SK-MEL-5 melanoma): 344 nM
TGI (SK-MEL-5 melanoma): 1600 nM
GI50 (SK-OV-3 ovarian): 614 nM
TGI (SK-OV-3 ovarian): 9890 nM
GI50 (SN12C renal): 410 nM
TGI (SN12C renal): 3910 nM
GI50 (SNB-19 CNS): 423 nM
TGI (SNB-19 CNS): 11500 nM
GI50 (SNB-75 CNS): 187 nM
TGI (SNB-75 CNS): 3830 nM
GI50 (SR leukemia): 273 nM
GI50 (SW-620 colon): 378 nM
TGI (SW-620 colon): 13600 nM
GI50 (T-47D breast): 319 nM
TGI (T-47D breast): 7250 nM
GI50 (TK-10 renal): 1710 nM
TGI (TK-10 renal): 13900 nM
GI50 (U251 CNS): 349 nM
TGI (U251 CNS): 4570 nM
GI50 (UACC-257 melanoma): 688 nM
TGI (UACC-257 melanoma): 13700 nM
GI50 (UACC-62 melanoma): 191 nM
TGI (UACC-62 melanoma): 1760 nM
GI50 (UO-31 renal): 489 nM
TGI (UO-31 renal): 5740 nM
